From patent publication US6156757A, “1,2,3,4-tetrahydro-benzofuro[3,2-C]pyridine derivatives” (Janssen Pharmaceutica N.V., priority 1997, dated 2000)

Tests used:
[1] = target: T1, cloned human α2C receptors (Homo sapiens, UniProt P18825); test: In vitro binding affinity for α2C receptors (3H-rauwolscine competition binding); conditions: at a test concentration of 10^-8 M or less; CHO cell expressing cloned human α2C receptors
T1 construct: expressed in transfected cells; host or cells: CHO cells
T1 sequence (P18825 1-462): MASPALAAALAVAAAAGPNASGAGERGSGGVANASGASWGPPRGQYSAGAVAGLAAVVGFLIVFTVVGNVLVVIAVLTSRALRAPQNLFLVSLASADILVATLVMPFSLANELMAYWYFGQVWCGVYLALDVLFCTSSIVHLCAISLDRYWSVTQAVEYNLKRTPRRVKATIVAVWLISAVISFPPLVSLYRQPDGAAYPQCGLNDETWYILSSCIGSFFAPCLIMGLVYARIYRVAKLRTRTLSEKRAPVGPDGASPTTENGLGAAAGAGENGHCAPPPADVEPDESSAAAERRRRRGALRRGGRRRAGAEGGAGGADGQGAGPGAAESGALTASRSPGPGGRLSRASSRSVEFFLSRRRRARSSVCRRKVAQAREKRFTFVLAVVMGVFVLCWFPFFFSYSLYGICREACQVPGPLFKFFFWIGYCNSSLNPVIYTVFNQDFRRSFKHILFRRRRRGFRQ

α2 -adrenoceptor = test: Xylazine-induced loss of righting reflex in rats; type: in vivo; conditions: one hour before xylazine 15 mg/kg i.v., male rats, lowest tested dose at which at least 66% of animals showed no loss of righting reflex
Method: This test is based upon the fact that centrally acting α2 -adrenoceptor antagonists reverse the loss of righting reflex induced by an intravenous injection of the α2 agonist xylazine. One hour before injection of xylazine (15 mg/kg, i.v.), male rats (200-250 g) were pretreated with a test compound (er os (p.o.) or subcutaneously (s.c.)) or solvent.

[2] = target: T2, cloned human α2A receptors (Homo sapiens, UniProt P08913); test: In vitro binding affinity for α2A receptors (3H-rauwolscine competition binding); conditions: at a test concentration of 10^-8 M or less; CHO cell expressing cloned human α2A receptors
T2 sequence (P08913 1-465): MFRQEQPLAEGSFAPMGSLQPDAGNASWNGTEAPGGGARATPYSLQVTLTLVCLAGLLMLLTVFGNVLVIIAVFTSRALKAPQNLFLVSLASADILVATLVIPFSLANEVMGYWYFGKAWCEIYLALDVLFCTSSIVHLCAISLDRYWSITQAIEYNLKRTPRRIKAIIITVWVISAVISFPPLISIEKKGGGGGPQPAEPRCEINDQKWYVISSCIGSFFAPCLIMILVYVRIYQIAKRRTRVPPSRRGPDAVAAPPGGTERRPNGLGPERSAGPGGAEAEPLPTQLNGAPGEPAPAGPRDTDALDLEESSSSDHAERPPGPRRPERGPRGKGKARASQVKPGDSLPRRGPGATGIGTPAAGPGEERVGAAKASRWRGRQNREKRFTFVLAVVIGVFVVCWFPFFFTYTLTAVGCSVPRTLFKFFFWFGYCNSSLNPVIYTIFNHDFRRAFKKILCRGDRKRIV
Method: The interaction of the compounds of formula (I) with α2 receptors was assessed in in vitro radioligand binding experiments.
In general, a low concentration of a radioligand with a high binding affinity for a particular receptor is incubated with a sample of a tissue preparation enriched in a particular receptor or with a preparation of cells expressing cloned human receptors in a buffered medium. During the incubation, the radioligand binds to the receptor. When equilibrium of binding is reached, the receptor bound radioactivity is separated from the non-bound radioactivity, and the receptor bound activity is counted. The interaction of the test compounds with the receptor is assessed in competition binding experiments. Various concentrations of the test compound are added to the incubation mixture containing the receptor preparation and the radioligand. Binding of the radioligand will be inhibited by the test compound in proportion to its binding affinity and its concentration.
The radioligand used for α2A receptor binding is ^3 H-rauwolscine and the receptor preparation used is the Chinese Hamster Ovary (CHO) cell expressing cloned human α2A receptors.

Row | SMILES | inhibition at up to 0.01 µM [1] | LAD in mg/kg (lowest active dose for xylazine antagonism) (α2 -adrenoceptor; s.c.) | LAD in mg/kg (lowest active dose for xylazine antagonism) (α2 -adrenoceptor; p.o.) | inhibition [2]
1 | Cc1nc2n(C)c(C)cn2c(=O)c1CCN1CCc2oc3ccccc3c2C1 [Compound 8] | > 50% | – | – | –
2 | Cc1cc(C)n2c(=O)c(CCN3CCc4oc5ccccc5c4C3)c(C)nc2c1 [Compound 37] | – | 10.00 mg/kg | – | –
3 | Cc1nc2ccccn2c(=O)c1CCN1CCc2oc3c([N+](=O)[O-])cccc3c2C1 [Compound 22] | – | – | 10.00 mg/kg | –
4 | Cc1nc2scc(C)n2c(=O)c1CCN1CCc2oc3ccccc3c2C1 [Compound 5, 6-[[3,4-dihydrobenzofuro[3,2-c]pyridin-2(lH)-yl]ethyl]-3,7-dimethyl-5H-thiazolo-[3,2-a]pyrimidin-5-one] | – | 0.63 mg/kg | – | –
5 | Cc1nc2n(c(=O)c1CCN1CCc3oc4ccccc4c3C1)CCS2 [Compound 6] | – | 0.63 mg/kg | – | –
6 | Cc1nc2sccn2c(=O)c1CCN1CCc2oc3ccc(F)cc3c2C1 [Compound 16] | – | – | 10.00 mg/kg | –
7 | Cc1cc2nc(C)c(CCN3CCc4oc5ccccc5c4C3)c(=O)n2o1 [Compound 4] | – | – | 1.25 mg/kg | –
8 | Cc1nc2n(c(=O)c1CCN1CCc3oc4ccccc4c3C1)CCCC2C (stereo not shown) [Compound 25] | – | – | 10.00 mg/kg | –
9 | Cc1nc2cccc(C)n2c(=O)c1CCN1CCc2oc3ccccc3c2C1 [Compound 39] | – | 0.63 mg/kg | – | –
10 | Cc1ccc(C(=O)N2CCC(CN3CCc4oc5ccccc5c4C3)CC2)cc1 [Compound 58, 4-[(3,4-dihydrobenzofuro[3,2-c]pyridin-2(1H)-yl)methyl]-1-(4-methylbenzoyl)piperidine] | > 50% | – | 2.50 mg/kg | –
11 | Cc1nc2ccccn2c(=O)c1CCN1CCc2oc3ccc(Cl)cc3c2C1 [Compound 24] | – | – | 10.00 mg/kg | –
12 | Cc1nc2n(c(=O)c1CCN1CCc3oc4ccccc4c3C1)CCCS2 [Compound 28] | – | 0.63 mg/kg | – | –
13 | O=c1c(CCN2CCc3oc4ccccc4c3C2)c(Cc2ccccc2)nc2ccccn12 [Compound 14] | > 50% | – | – | –
14 | Cc1nc2c(Cl)cc(Cl)cn2c(=O)c1CCN1CCc2oc3ccccc3c2C1 [Compound 40] | – | – | 10.00 mg/kg | –
15 | COc1cccn2c(=O)c(CCN3CCc4oc5ccccc5c4C3)c(C)nc12 [Compound 65, 3-[2-[3,4-dihydrobenzofuro[3,2-c]-pyridin-2(1H)-yl]ethyl]-9-methoxy-2-methyl-4H-pyrido[1,2-a]pyrimidin-4-one] | > 50% | 0.63 mg/kg | – | > 50%
16 | O=c1oc2ccccc2n1CCCN1CCc2oc3ccccc3c2C1 [Compound 60] | – | – | 10.00 mg/kg | > 50%
17 | Cc1nc2n(c(=O)c1CCN1CCc3oc4ccc(F)cc4c3C1)CCCC2 [Compound 18] | – | 10.00 mg/kg | – | > 50%
18 | Cc1nc2ccc(Cl)cn2c(=O)c1CCN1CCc2oc3ccccc3c2C1 [Compound 32] | – | 0.04 mg/kg | – | –
19 | Cc1nc2sccn2c(=O)c1CCN1CCc2oc3ccccc3c2C1 [Compound 1, 6-[[3,4-dihydrobenzofuro[3,2-c]pyridin-2(1H)-yl]ethyl]-7-methyl-5H-thiazolo-[3,2-a]pyrimidin-5-one] | – | 0.63 mg/kg | – | –

Row | SMILES | inhibition at up to 0.01 µM [1] | LAD in mg/kg (lowest active dose for xylazine antagonism) (α2 -adrenoceptor; s.c.) | LAD in mg/kg (lowest active dose for xylazine antagonism) (α2 -adrenoceptor; p.o.) | inhibition [2]
20 | CSc1nc(C)c(CCN2CCc3oc4ccccc4c3C2)c(=O)n1C [Compound 55] | > 50% | – | 10.00 mg/kg | > 50%
21 | Cc1nc2c(O)cccn2c(=O)c1CCN1CCc2oc3ccccc3c2C1 [Compound 35] | – | 10.00 mg/kg | – | –
22 | Cc1nc2ccccn2c(=O)c1CCCN1CCc2oc3ccccc3c2C1 [Compound 26] | – | 10.00 mg/kg | – | –
23 | Cc1nc2sccn2c(=O)c1CCCN1CCc2oc3ccccc3c2C1 [Compound 27] | – | 10.00 mg/kg | – | –
24 | Cc1ccc2nc(C)c(CCN3CCc4oc5ccccc5c4C3)c(=O)n2c1 [Compound 34, 3-[2-[3,4-dihydrobenzofuro[3,2-c]pyridin-2(1H)-yl]ethyl]-2,7-dimethyl-4H-pyrido-[1,2-a]pyrimidin-4-one] | > 50% | 0.16 mg/kg | – | > 50%
25 | Cc1ccc(C(=O)N2CCCC(CN3CCc4oc5ccccc5c4C3)C2)cc1 (stereo not shown) [Compound 57] | – | – | 10.00 mg/kg | –
26 | c1ccc2sc(NCCCN3CCc4oc5ccccc5c4C3)nc2c1 [Compound 49] | – | 10.00 mg/kg | – | > 50%
27 | c1ccc2sc(NCCCCN3CCc4oc5ccccc5c4C3)nc2c1 [Compound 50] | > 50% | 10.00 mg/kg | – | –
28 | c1ccc2sc(NCCN3CCc4oc5ccccc5c4C3)nc2c1 [Compound 51, N-2-benzothiazole-3,4-dihydrobenzofuro[3,2-c]pyridin-2(1H)-ethanamine (E)-2-butenedioate (1:1)] | – | 10.00 mg/kg | – | –
29 | Cc1nc2n(c(=O)c1CCN1CCc3oc4ccccc4c3C1)CCCC2 [Compound 2] | – | – | 1.25 mg/kg | –
30 | Cc1nc2n(c(=O)c1CCN1CCc3oc4ccccc4c3C1)CCCC2C (stereo not shown) [Compound 13] | > 50% | – | – | –
31 | Cc1nc2ccccn2c(=O)c1CCN1CCc2oc3c(Cl)cccc3c2C1 [Compound 23] | > 50% | 2.50 mg/kg | – | –
32 | O=c1c(CCN2CCc3oc4ccccc4c3C2)c(Cc2ccccc2)nc2ccccn12 [Compound 29] | – | 10.00 mg/kg | – | –
33 | Cc1nc2ccccn2c(=O)c1CCN1CCc2oc3ccc(F)cc3c2C1 [Compound 17] | – | 10.00 mg/kg | 10.00 mg/kg | > 50%
34 | Cc1ccc2oc3c(c2c1)CN(CCc1c(C)nc2sccn2c1=O)CC3 [Compound 19] | – | 10.00 mg/kg | – | –
35 | Cc1ccn2c(=O)c(CCN3CCc4oc5ccccc5c4C3)c(C)nc2c1 [Compound 36] | – | 0.63 mg/kg | – | –
36 | Cn1c(=O)c2c(ncn2CCN2CCc3oc4ccccc4c3C2)n(C)c1=O [Compound 59] | – | 10.00 mg/kg | – | –
37 | Cc1nc2ccccn2c(=O)c1CCN1CCc2oc3ccccc3c2C1 [Compound 3, 3-[2-[3,4-dihydrobenzofuro[3,2-c]pyridin-2(1H)-yl]ethyl]-2-methyl-4H-pyrido[1,2-a]pyrimidin-4-one] | – | 0.08 mg/kg | 0.31 mg/kg | –
